Values after ≈ are worked out from the molar mass of the structure shown.
Experiments:
EGFR (human) = EGFR (human) (UniProt P00533); conditions: a431
EGFR = EGFR (UniProt P00533)
EGFR, sequence (P00533 whole entry, looked up): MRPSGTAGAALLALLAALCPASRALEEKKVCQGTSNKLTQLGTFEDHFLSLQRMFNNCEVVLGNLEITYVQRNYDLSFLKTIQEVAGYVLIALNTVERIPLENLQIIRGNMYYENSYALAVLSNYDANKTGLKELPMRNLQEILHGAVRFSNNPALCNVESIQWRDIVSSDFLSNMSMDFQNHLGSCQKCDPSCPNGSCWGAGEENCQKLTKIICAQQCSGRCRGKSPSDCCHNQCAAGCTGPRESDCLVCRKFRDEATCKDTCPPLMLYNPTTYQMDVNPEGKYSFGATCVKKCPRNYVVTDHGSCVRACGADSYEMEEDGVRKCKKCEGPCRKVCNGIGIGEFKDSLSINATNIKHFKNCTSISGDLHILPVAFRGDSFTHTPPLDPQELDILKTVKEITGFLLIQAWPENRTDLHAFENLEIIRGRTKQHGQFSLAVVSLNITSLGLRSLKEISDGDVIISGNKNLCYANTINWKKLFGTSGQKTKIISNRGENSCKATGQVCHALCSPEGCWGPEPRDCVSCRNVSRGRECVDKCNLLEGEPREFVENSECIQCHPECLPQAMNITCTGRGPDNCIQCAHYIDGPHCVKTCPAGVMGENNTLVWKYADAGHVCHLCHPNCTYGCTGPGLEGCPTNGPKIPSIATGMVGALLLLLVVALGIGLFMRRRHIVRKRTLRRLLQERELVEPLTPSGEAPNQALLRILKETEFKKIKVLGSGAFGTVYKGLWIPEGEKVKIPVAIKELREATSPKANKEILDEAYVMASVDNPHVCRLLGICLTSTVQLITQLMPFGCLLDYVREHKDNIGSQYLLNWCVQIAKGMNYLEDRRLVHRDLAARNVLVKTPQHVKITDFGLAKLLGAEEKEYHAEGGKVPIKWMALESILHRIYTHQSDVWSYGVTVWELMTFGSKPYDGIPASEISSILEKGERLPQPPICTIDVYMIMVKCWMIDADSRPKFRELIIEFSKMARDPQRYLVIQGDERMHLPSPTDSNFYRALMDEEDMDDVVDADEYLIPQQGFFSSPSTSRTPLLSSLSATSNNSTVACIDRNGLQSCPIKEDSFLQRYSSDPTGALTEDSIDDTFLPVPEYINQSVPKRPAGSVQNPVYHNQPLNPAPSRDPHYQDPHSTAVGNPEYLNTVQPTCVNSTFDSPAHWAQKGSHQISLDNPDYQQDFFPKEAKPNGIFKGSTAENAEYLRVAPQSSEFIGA

EGFR (human), sequence (P00533 whole entry, looked up): as above

Structure (SMILES) | IC50 (EGFR (human)) [µg/mL] | IC50 (EGFR) [µg/mL]
CCOc1cc2ncc(C#N)c(Nc3ccc(Sc4nc(-c5ccccc5)cs4)c(C(F)(F)F)c3)c2cc1N | > 5 | –
CCOc1cc2ncc(C#N)c(Nc3cc(Cl)c(Nc4nncs4)c(C(F)(F)F)c3)c2cc1[N+](=O)[O-] | 1.79 (≈ 3.34 µM) | –
COc1cc2ncc(C#N)c(Nc3ccc(-n4ccnc4)c(Cl)c3)c2cc1[N+](=O)[O-] | 1.79 (≈ 4.25 µM) | –
CCOc1cc2ncc(C#N)c(Nc3ccc4cc[nH]c4c3)c2cc1OCC | 0.123 (≈ 0.33 µM) | –
COc1cc2ncc(C#N)c(Nc3ccc(Sc4nc5ccccc5c(=O)[nH]4)c(Cl)c3)c2cc1NC(=O)/C=C/CN(C)C | 0.34 (≈ 0.555 µM) | –
COc1cc2c(Nc3ccc(Sc4nccn4C)c(Cl)c3)c(C#N)cnc2cc1OCCCN1CCOCC1 | 0.775 (≈ 1.37 µM) | –
CCOc1cc2ncc(C#N)c(Nc3ccc(Sc4nc(-c5ccccc5)cs4)c(C(F)(F)F)c3)c2cc1[N+](=O)[O-] | 0.76 (≈ 1.28 µM) | –
COc1cc2ncc(C#N)c(Nc3ccc(N(c4ccc(N(Cc5cccnc5)C(C)=O)c(Cl)c4)c4c(OC)cnc5ccccc45)c(Cl)c3)c2cc1N | > 5 | –
C=CC(=O)Nc1ccc2ncc(C#N)c(Nc3ccc(Sc4nccn4C)c(Cl)c3)c2c1 | 0.62 (≈ 1.35 µM) | –
CCOc1cc2ncc(C#N)c(Nc3cc(Cl)c(Nc4nncs4)c(C(F)(F)F)c3)c2cc1NC(=O)/C=C/CN(C)C | 0.728 (≈ 1.18 µM) | –
CCOc1cc2ncc(C#N)c(Nc3ccc4cn[nH]c4c3)c2cc1OC | 0.0368 (≈ 0.102 µM) | –
CCOc1cc2ncc(C#N)c(Nc3ccc(Oc4ccncc4)c(Cl)c3)c2cc1N | > 5 | –
CCOc1cc2ncc(C#N)c(Nc3ccc(Sc4nccc(C)n4)c(Cl)c3)c2cc1N | 1.53 (≈ 3.3 µM) | –
COc1cc2ncc(C#N)c(Nc3ccc(Sc4nccs4)c(Cl)c3)c2cc1N | 0.663 (≈ 1.51 µM) | –
COc1cc2ncc(C#N)c(Nc3ccc4cn[nH]c4c3)c2cc1OCCCN1CCOCC1 | > 5 | –
COc1cc2ncc(C#N)c(Nc3ccc(Sc4nccn4C)c(Cl)c3)c2cc1[N+](=O)[O-] | 2.88 (≈ 6.17 µM) | –
CCOc1cc2ncc(C#N)c(Nc3ccc(Sc4nccc(C)n4)c(Cl)c3)c2cc1[N+](=O)[O-] | 1.2 (≈ 2.43 µM) | –
COc1cc2ncc(C#N)c(Nc3ccc(-n4ccnc4)c(Cl)c3)c2cc1NC(=O)/C=C/CN(C)C | 0.51 (≈ 1.02 µM) | –
CCOc1cc2ncc(C#N)c(Nc3ccc(Oc4ccncc4)c(Cl)c3)c2cc1[N+](=O)[O-] | > 5 | –
COc1cc2ncc(C#N)c(Nc3ccc(N(Cc4cccnc4)C(C)=O)c(Cl)c3)c2cc1NC(=O)/C=C/CN(C)C | 0.646 (≈ 1.11 µM) | –
COc1cc2ncc(C#N)c(Nc3ccc(Sc4nc5ccccc5c(=O)[nH]4)c(Cl)c3)c2cc1N | 1.22 (≈ 2.44 µM) | –
CCOc1cc2ncc(C#N)c(Nc3ccc(OCc4cccc(F)c4)c(Cl)c3)c2cc1NC(=O)/C=C/CN(C)C | – | 0.019 (≈ 0.0331 µM)
CCOc1cc2ncc(C#N)c(Nc3ccc4c(c3)S(=O)(=O)C=C4)c2cc1OCC | 0.257 (≈ 0.61 µM) | –

Structure (SMILES) | IC50 (EGFR (human)) [µg/mL] | IC50 (EGFR) [µg/mL]
COCCN(C)C/C=C/C(=O)Nc1cc2c(Nc3ccc(Sc4nccs4)c(Cl)c3)c(C#N)cnc2cc1OC | 0.03 (≈ 0.0504 µM) | –
CCOc1cc2ncc(C#N)c(Nc3ccc(Sc4nc(C)cc(C)n4)c(Cl)c3)c2cc1NC(=O)/C=C/CN(C)C | 0.24 (≈ 0.408 µM) | –
CCOc1cc2ncc(C#N)c(Nc3ccc4c(c3)OCCO4)c2cc1OCC | 0.27 (≈ 0.69 µM) | –
COc1ccc2c(N(c3ccc(N(Cc4cccnc4)C(C)=O)c(Cl)c3)c3ccc(Nc4c(C#N)cnc5cc(OC)c(NC(C)=O)cc45)cc3Cl)c(C#N)cnc2c1 | 3.68 (≈ 4.47 µM) | –
COc1cc2ncc(C#N)c(Nc3ccc(Sc4nccs4)c(Cl)c3)c2cc1NC(=O)/C=C/CN(C)C | 0.017 (≈ 0.0308 µM) | –
CCOc1cc2ncc(C#N)c(Nc3ccc(OCc4ccccc4)c(Cl)c3)c2cc1NC(=O)/C=C/CN(C)C | 0.062 (≈ 0.111 µM) | 0.028 (≈ 0.0504 µM)
COc1cc2nc(Sc3ccc(Nc4c(C#N)cnc5cc(OC)c([N+](=O)[O-])cc45)cc3Cl)[nH]c(=O)c2cc1O | 2.28 (≈ 3.95 µM) | –
COc1cc2c(Nc3ccc(Sc4nccn4C)c(Cl)c3)c(C#N)cnc2cc1OCCCn1ccnn1 | 1.83 (≈ 3.35 µM) | –
CCOc1cc2ncc(C#N)c(Nc3ccc(Nc4nnc(C(F)(F)F)s4)c(Cl)c3)c2cc1N | > 5 | –
CCOc1cc2ncc(C#N)c(Nc3ccc(Cn4ccnc4)c(Cl)c3)c2cc1NC(=O)/C=C/CN(C)C | 0.95 (≈ 1.79 µM) | –
COCCOc1cc2ncc(C#N)c(Nc3ccc4cn[nH]c4c3)c2cc1OCCOC | 1.96 (≈ 4.52 µM) | –
CCOc1cc2c(Nc3ccc4cn[nH]c4c3)c(C#N)cnc2cc1OC | 0.786 (≈ 2.19 µM) | –
COc1cc2ncc(C#N)c(Nc3ccc(NCc4cccnc4)c(Cl)c3)c2cc1[N+](=O)[O-] | 1.6 (≈ 3.47 µM) | –
COc1cc2ncc(C#N)c(Nc3ccc(Sc4nccs4)c(Cl)c3)c2cc1[N+](=O)[O-] | 0.148 (≈ 0.315 µM) | –
COc1cc2ncc(C#N)c(Nc3ccc(Sc4nccn4C)c(Cl)c3)c2cc1N | 3.04 (≈ 6.96 µM) | –
CCOc1cc2ncc(C#N)c(Nc3ccc(Cn4ccnc4)c(Cl)c3)c2cc1[N+](=O)[O-] | > 5 | –
CCOc1cc2ncc(C#N)c(Nc3ccc(Sc4nc(C)cc(C)n4)c(Cl)c3)c2cc1N | 0.76 (≈ 1.59 µM) | –
CCOc1cc2ncc(C#N)c(Nc3ccc(Sc4nc(C)cc(C)n4)c(Cl)c3)c2cc1[N+](=O)[O-] | > 5 | –
CCOc1cc2ncc(C#N)c(Nc3ccc(Cn4ccnc4)c(Cl)c3)c2cc1N | > 5 | –
CCOc1cc2ncc(C#N)c(Nc3ccc4c(c3)CCC4=O)c2cc1OCC | 0.0181 (≈ 0.0467 µM) | –
COc1cc2ncc(C#N)c(Nc3ccc(Sc4nc(-c5ccccc5)cs4)c(Cl)c3)c2cc1NC(=O)/C=C/CN(C)C | 0.162 (≈ 0.258 µM) | –
CCOc1cc2ncc(C#N)c(Nc3ccc4c(c3)CCC4)c2cc1OCC | 0.342 (≈ 0.916 µM) | –

Reference: the Kinase Knowledgebase extract (Sharma et al. 2016)
